From paper PMC9823088, “The oral selective estrogen receptor degrader GDC-0810 (ARN-810) in postmenopausal women with hormone receptor-positive HER2-negative (HR + /HER2 −) advanced/metastatic breast cancer” (Breast Cancer Research and Treatment, 2022)

System: ER
Assay: [18F]-fluoroestradiol PET (FES-PET) pharmacodynamic response
Format: in vivo, human
Method: Blood samples were collected for pharmacokinetic assessments. Tumor assessments were performed at screening and every 8 weeks from cycle 1, day 1 (C1D1). Radiographic assessment of objective tumor response or disease progression was based on Response Evaluation Criteria in Solid Tumors (RECIST v1.1). Transvaginal ultrasound scans were performed to monitor endometrial thickness at screening, at every 6 months from C1D1, and at the end of treatment. Imaging with [^18F]-fluoroestradiol positron emission tomography (FES-PET) was performed to quantify ER expression in tumors and to assess for pharmacodynamic response. Further assessment details are provided in Supplementary Methods. […]
Tumor assessments were performed at screening and every 8 weeks from cycle-1, day-1 […]
Imaging with [18F]-fluoroestradiol positron emission tomography
(FES-PET) was performed to quantify ER expression in tumors and to assess for pharmacodynamic response. In phase Ia, FES-PET scans were acquired at screening and on C2D3 at 18-24 hours post the C2D2 dose. Scans were repeated during cycle 3 if the C2D3 scan […]
In phase IIa cohort A1 patients, FES-PET scans were acquired at screening and on C3D3 at 18-24 hours post the C3D2 dose. Scans were repeated at the time of progression if feasible. The mean percent change from baseline in SUVmax (corrected for background activity) for up to five index lesions was calculated for each patient; more details are presented in (1). Optional tumor biopsies were collected at baseline (screening)

CC/C(=C(/c1ccc(/C=C/C(=O)O)cc1)c1ccc2[nH]ncc2c1)c1ccc(F)cc1Cl [GDC-0810] was tested, and the “patients with complete or near-complete reduction in FES uptake” value (600 mg QD (fasting and non-fasting)) was at least 80%, the “response rates by FES-PET” value (600-mg QD, fasting, and non-fasting, including tumors harboring ESR1 mutations) was 80–100% and the “patients with complete or near complete (> 90%) suppression of FES uptake” value (shortened to “patients … (> 90%) suppression of FES uptake”) (all patients who had FES-PET scans) was 78%. The FES reduction (in vivo) was over 90%, the “patients … (> 90%) suppression of FES uptake” value (patients with tumors harboring ESR1 mutations) was 18 of 26 and the “patients … (> 90%) suppression of FES uptake” value (phase IIa dose expansion, baseline and C3D3 scans) was 7 of 10. The “patients with a single lesion considered FES-avid (SUVmax corrected > 1.5)” value (phase Ia dose escalation, C2D3) was “two” and the “patients … (> 90%) suppression of FES uptake” value (phase Ia, baseline and C2D3 scans) was 24 of 30.
